Legend:
p53 = p53 mRNA, semi-quantitative RT-PCR, Jurkat; assay type: cell-based, human; conditions: various doses, 12 h
Protocol: RNA extraction: Total RNA was isolated using the standard TRIzol method (Gibco BRL). Briefly, 3×10^6 cells were treated with different concentrations of the compounds as indicated in the legends to Figures and after harvesting the cell pellet was resuspended in 1 ml of TRIzol with repeated pipetting. The homogenized sample was incubated at RT for 5 min to permit complete dissociation of the nucleoprotein complexes. […] of chloroform was added and the tubes were shaken vigorously for 15 sec by hand and then incubated at RT for 3 mins. The samples were then centrifuged at 10,000 RPM for 15 mins at 4° C. The aqueous phase was transferred to a fresh tube and 500 μl of Isopropyl alcohol was added, followed by incubation at RT for 10 mins. The samples were centrifuged at 10,000 RPM for 10 min at 4° C. and the RNA pellet was washed with 1 ml of 75% ethanol followed by centrifugation at maximum speed at 4° C. for 10 mins. Washing was repeated once more and after removing the supernatant, the RNA pellet was dried and dissolved in 20 ul of RNase free water (Promega). […]
Semi-quantitative reverse transcriptase (RT)-PCR: Changes in gene expression were verified by semi-quantitative RT-PCR using GAPDH as an internal normalization standard. 1 μg of total RNA (quantified by spectrophotometer) was used to reverse transcribe into cDNA. […]

phosphotyrosine = experiment: Tyrosine phosphorylation assay (flow cytometry), Jurkat; assay type: cell-based, human; conditions: 24 h
Protocol: FIG. 20: Suppression of phosphotyrosine levels in Jurkat cells by compound 27. 1×10^6 cells were treated with indicated concentrations of the compound for 24 h. Cells were fixed and permeabilized as described in the “Materials and Methods”, and the extent of tyrosine phosphorylation in the cells was determined by measuring the increase in fluorescence produced by the FITC-labeled monoclonal antibody compared to the FITC-labeled isotype control antibody. 100 nM concentration was sufficient to bring significant reduction in tyrosine phosphorylation levels compared to the control values.
Tyrosine Phosphorylation assay: Tyrosine Phosphorylation assay was performed by the method described by Far, D. F. et. al., (Cytometry (1994) 15(4):327-334) and Park. J. B., et al. ((2003) Cancer Letters, 202 161-171). Briefly, cells (10^6) were washed with ice-cold PBS, pH 7.2 for 30 min at 4° C. After centrifugation and a PBS wash it was treated with 5 ml chilled 70% ethanol. […] Extent of tyrosine phosphorylation in the cells was determined by measuring the increase in fluorescence produced by the FITC-labeled monoclonal antibody compared to the FITC-labeled isotype control antibody. Fluorecence events for 10,000 cells were collected and analyzed by flow cytometry (FACSCalibur cytometer with CellQuest software, Becton Dicinson, San Jose, Calif.).

COc1cc([C@@H]2Oc3c(OC)cc(/C=C/C(=O)O)cc3[C@H]2C(=O)O)ccc1O [compound 27, 5-[(E)-2-carboxyvinyl]-2β-(4-hydroxy-3-methoxyphenyl)-7-methoxy-2,3-dihydro-1-benzofuran-3α-carboxylic acid]
p53 mRNA level (p53): only slight increase in p53 mRNA level
phosphotyrosine level (mean fluorescence intensity) (phosphotyrosine; 100 nM, vs untreated controls): significant reduction in the mean fluorescence intensity
phosphotyrosine level (phosphotyrosine; all doses): reduced at all doses
